According to patent US8481762B2, “Administration of compounds that increase glutathione levels in the melanocytes for the treatment of canities” (L'Oreal, priority 2004, dated 2013):

Tested on: human melanocyte line WM35
Details: wild-type WM35 treated 24 h before H2O2 stress; compared with clone-2 line
Procedure: To carry out the test, the cells are inoculated at the density of 2.5×10^4 cells/well and then treated with the compounds to be evaluated:
a—1:1 mixture containing 4 μg/ml of cafestol and kahweol;
After 24 h, the cells are exposed to a stress induced by H2O2.
The cell viability is measured 24 h after the stress with the aid of 2′,7′-dichlorodihydrofluoresceine diacetate (H2DCFDA; D399, Molecular Probes).

## Cc1c(-c2cnccn2)ssc1=S [oltipraz]
  effect on sensitivity of the wild-type line to H2O2 induced stress: limits the sensitivity of the cells to H2O2 induced stress
